From US8835476B2, “Synthesis of novel antimicrobials” (priority 2005, dated 2014)
≈ marks a conversion by molar mass, not a printed value. Where two headings read alike, the source gives them in different places.

Tests used:
[1] = test system: B. cepacia ATCC 25416; assay: Broth microdilution MIC, ATCC strains; type: cell-based; conditions: Burkholderia cepacia, ATCC25416; B. cepacia ATCC 25416; read-out: MIC (growth inhibition, microdilution method)
In short: (§1)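 NCCLS M7-A6 broth microdilution, inoculum 5×10^5 CFU/ml, with DMSO controls; read after 16 to 20 hours at 35° C in ambient air. MIC is lowest concentration inhibiting visible growth; clinical strains were outpatient urinary isolates from NAUTICA, alongside ATCC reference strains.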

[2] = test system: E. aerogenes ATCC 13048; assay: Broth microdilution MIC, ATCC strains; type: cell-based; conditions: Klebsiella aerogenes
In short: as §1

[3] = test system: E. faecium ATCC 35667; assay: Broth microdilution MIC, ATCC strains; type: cell-based; conditions: Enterococcus faecium, ATCC35667, read-out: MIC (growth inhibition, microdilution method)
In short: as §1

[4] = test system: P. vulgaris ATCC 49132; assay: Broth microdilution MIC, ATCC strains; type: cell-based; conditions: Proteus vulgaris
In short: as §1

[5] = test system: Pr. stuartii ATCC 33672; assay: Broth microdilution MIC, ATCC strains; type: cell-based; conditions: Providencia stuartii
In short: as §1

[6] = test system: Ps. aeruginosa ATCC 27853; assay: Broth microdilution MIC, ATCC strains; type: cell-based; conditions: Pseudomonas aeruginosa
In short: as §1

[7] = test system: S. aureus ATCC 29213; assay: Broth microdilution MIC, ATCC strains; type: cell-based; conditions: Staphylococcus aureus
In short: as §1

[8] = test system: S. epidermidis ATCC 14990; assay: Broth microdilution MIC, ATCC strains; type: cell-based; conditions: Staphylococcus epidermidis
In short: as §1

[9] = test system: S. liquefaciens ATCC 27592; assay: Broth microdilution MIC, ATCC strains; type: cell-based; conditions: read-out: MIC (growth inhibition, microdilution method)
In short: as §1

[10] = test system: S. maltophilia ATCC 13637; assay: Broth microdilution MIC, ATCC strains; type: cell-based; conditions: Stenotrophomonas maltophilia, ATCC13637; S. maltophilia ATCC 13637; read-out: MIC (growth inhibition, microdilution method)
In short: as §1

[11] = test system: S. simulans ATCC 27848; assay: Broth microdilution MIC, ATCC strains; type: cell-based; conditions: Staphylococcus simulans, ATCC27848, read-out: MIC (growth inhibition, microdilution method)
In short: as §1

[12] = test system: Ps. aeruginosa clinical isolates; assay: Broth microdilution MIC, clinical isolate strains (NAUTICA); type: cell-based; conditions: unit assumed
In short: as §1

[13] = ATCC13048, E. aerogenes ATCC 13048, read-out: MIC (growth inhibition, microdilution method)
[14] = ATCC49132, P. vulgaris ATCC 49132, read-out: MIC (growth inhibition, microdilution method)
[15] = ATCC33672, Pr. stuartii ATCC 33672, read-out: MIC (growth inhibition, microdilution method)
[16] = ATCC27853, Ps. aeruginosa ATCC 27853, read-out: MIC (growth inhibition, microdilution method)
[17] = ATCC29213, S. aureus ATCC 29213, read-out: MIC (growth inhibition, microdilution method)
[18] = ATCC14990, S. epidermidis ATCC 14990, read-out: MIC (growth inhibition, microdilution method)
[19] = Table 4B, each table row is one clinical isolate
[20] = ATCC13048, read-out: MIC (growth inhibition, microdilution method)
[21] = ATCC49132, read-out: MIC (growth inhibition, microdilution method)
[22] = ATCC27853, read-out: MIC (growth inhibition, microdilution method), Ps. aeruginosa ATCC 27853
[23] = ATCC29213, read-out: MIC (growth inhibition, microdilution method)

| Structure (SMILES) | MIC [1] | MIC [2, 13] | MIC [3] | MIC [4, 14] | MIC [5, 15] | MIC [6, 16] | MIC [7, 17] | MIC [8, 18] | MIC ([9]; S. liquefaciens ATCC 27592) | MIC [10] | MIC [11] | MIC, PS. AER [12, 19] | melting point | other results |
| --- | --- | --- | --- | --- | --- | --- | --- | --- | --- | --- | --- | --- | --- | --- |
| COC(=O)c1sc(-c2ccc(F)cc2)cc1-c1nnn(C)n1 [DNM-144, 5-(4-fluoro-phenyl)-3-(2-methyl-2H-tetrazol-5-yl)-thiophene-2-carboxylic acid methyl ester] | > 8 µg/mL | > 8 µg/mL | > 8 µg/mL | > 8 µg/mL | > 8 µg/mL | > 8 µg/mL | > 8 µg/mL | > 8 µg/mL | > 8 µg/mL | > 8 µg/mL | > 8 µg/mL | > 8 µg/mL | 131.5 to 132.5 °C |  |
| COC(=O)c1cc(-c2nnn(C)n2)c(C(=O)OC)s1 [DNM-114, 3-(2-methyl-2H-tetrazol-5-yl)-thiophene-2,5-dicarboxylic acid dimethyl ester] | 64 µg/mL (≈ 227 µM) |  | 8 µg/mL (≈ 28.3 µM) |  |  | 64 µg/mL (≈ 227 µM) |  | 64 µg/mL (≈ 227 µM) |  | 64 µg/mL (≈ 227 µM) | 256 µg/mL (≈ 907 µM) |  | 121 to 122 °C | MIC [2, 20]: 128 µg/mL (≈ 453 µM); MIC [4, 21]: 128 µg/mL (≈ 453 µM); MIC ([5]; ATCC33672, read-out: MIC (growth inhibition, microdilution method)): 128 µg/mL (≈ 453 µM); MIC [6, 22]: 128 µg/mL (≈ 453 µM); MIC [7, 23]: 128 µg/mL (≈ 453 µM); MIC [9]: 128 µg/mL (≈ 453 µM) |
| Cn1nnc(-c2cc(-c3ccc(F)cc3)sc2-c2ccc(F)cc2)n1 [DNM-132, 5-(2,5-bis(4-fluorophenyl)thiophen-3-yl)-2-methyl-2H-tetrazole] | > 16 µg/mL | > 16 µg/mL | > 16 µg/mL | > 16 µg/mL | > 16 µg/mL | > 16 µg/mL | > 16 µg/mL | > 16 µg/mL | > 16 µg/mL | > 16 µg/mL | > 16 µg/mL | > 16 µg/mL | 150 to 152 °C |  |
| Cn1nnnc1-c1cc(-c2ccc(F)cc2)sc1C(=O)O [DNM-143, 5-(4-Fluoro-phenyl)-3-(1-methyl-1H-tetrazol-5-yl)-thiophene-2-carboxylic acid] | > 8 µg/mL | > 8 µg/mL | > 8 µg/mL | > 8 µg/mL | > 8 µg/mL | > 8 µg/mL | > 8 µg/mL | > 8 µg/mL | > 8 µg/mL | > 8 µg/mL | > 8 µg/mL | > 8 µg/mL |  |  |
| Cn1nnnc1-c1cc(-c2ccc(F)cc2)sc1-c1ccc(F)cc1 [DNM-133, 5-(2,5-Bis(4-fluorophenyl)thiophen-3-yl)-1-methyl-1H-tetrazole] | > 16 µg/mL | > 16 µg/mL | > 16 µg/mL | > 16 µg/mL | > 16 µg/mL | > 16 µg/mL | > 16 µg/mL | > 16 µg/mL | > 16 µg/mL | > 16 µg/mL | > 16 µg/mL | > 16 µg/mL |  |  |
| CCOC(=O)c1cc(-c2nnn[nH]2)c(-c2ccc(F)cc2)s1 [DNM-124, 5-(4-Fluoro-phenyl)-4-(1H-tetrazol-5-yl)-thiophene-2-carboxylic acid ethyl ester] | 64 µg/mL (≈ 201 µM) | > 64 µg/mL | > 64 µg/mL | > 64 µg/mL | > 64 µg/mL | > 64 µg/mL | > 64 µg/mL | 64 µg/mL (≈ 201 µM) | > 64 µg/mL | 64 µg/mL (≈ 201 µM) | > 64 µg/mL |  |  |  |
| O=C(O)c1cc(-c2nnn[nH]2)c(C(=O)O)s1 [DNM-111, 3-(1H-tetrazol-5-yl)thiophene-2,5-dicarboxylic acid] | 64 µg/mL (≈ 266 µM) |  | 8 µg/mL (≈ 33.3 µM) |  | 256 µg/mL (≈ 1070 µM) | 64 µg/mL (≈ 266 µM) |  |  |  | 64 µg/mL (≈ 266 µM) | 256 µg/mL (≈ 1070 µM) |  |  | MIC [2, 20]: 128 µg/mL (≈ 533 µM); MIC [4, 21]: 128 µg/mL (≈ 533 µM); MIC [6, 22]: 128 µg/mL (≈ 533 µM); MIC [7, 23]: 128 µg/mL (≈ 533 µM); MIC ([8]; ATCC14990, read-out: MIC (growth inhibition, microdilution method)): 128 µg/mL (≈ 533 µM); MIC [9]: 128 µg/mL (≈ 533 µM); MIC, PS. AER ([12]; clinical isolates, one table line per isolate): 128 µg/mL (≈ 533 µM) |
